# Experimental data taken from ChEMBL document CHEMBL1149535, “2-Arylimino-5,6-dihydro-4H-1,3-thiazines as a new class of cannabinoid receptor agonists. Part 2: orally bioavailable compounds” (Bioorg Med Chem Lett, 2007).
# Tested on: not listed separately
# Assay: Total clearance in rat at 0.5 mg/kg, iv and 1 mg/kg, po
# Format: ADME, organism-based
# Details: in vivo
row,Compound,clearance
1,COc1ccccc1/N=C1\SCC2(CCCCC2)CN1C(=S)SC,75.9 mL/min/kg
2,COc1cccc(/N=C2\SCC3(CCCCC3)CN2C(=S)SC)c1,45.1 mL/min/kg
3,CSC(=S)N1CC2(CCCCC2)CS/C1=N\c1cccc2c1CCCC2,19.1 mL/min/kg
4,CSC(=S)N1CC2(CCCCC2)CS/C1=N\c1ccc(OC(F)(F)F)cc1,7.4 mL/min/kg
5,CSC(=S)N1CC2(CCCCC2)CS/C1=N\c1cccc2ccccc12,17.7 mL/min/kg
6,CSC(=S)N1CC2(CCCCC2)CS/C1=N\c1cccc2nsnc12,60.4 mL/min/kg
7,CSC(=S)N1CC(C)(C)CS/C1=N\c1ccccc1C(C)C,63.4 mL/min/kg
8,CSC(=S)N1CC2(CC2)CS/C1=N\c1ccccc1C(C)C,85.1 mL/min/kg
9,CSC(=S)N1CC2(CCCC2)CS/C1=N\c1ccccc1C(C)C,54.2 mL/min/kg
10,CCC1(CC)CS/C(=N\c2ccccc2C(C)C)N(C(=S)SC)C1,48.3 mL/min/kg
11,CSC(=S)N1CC2(CCCCC2)CS/C1=N\c1cccc2ncccc12,121 mL/min/kg
12,CSC(=S)N1CC2(CCCCC2)CS/C1=N\c1ccccc1C(C)C,18.6 mL/min/kg

# Tested on: Mus musculus
# Assay: Analgesic activity against formalin-induced acute pain in po dosed mouse
# Format: functional
# Details: not given
row,Compound,ED50
1,CSC(=S)N1CC2(CCCCC2)CS/C1=N\c1cccc2c1CCCC2,2.5 mg/kg
2,CSC(=S)N1CC2(CCCCC2)CS/C1=N\c1ccc(OC(F)(F)F)cc1,> 100 mg/kg
3,CSC(=S)N1CC2(CCCCC2)CS/C1=N\c1cccc2ccccc12,1.5 mg/kg
4,CSC(=S)N1CC2(CCCCC2)CS/C1=N\c1ccccc1C(C)C,17.5 mg/kg
5,CN1CC[C@]23c4c5ccc(O)c4O[C@H]2[C@@H](O)C=C[C@H]3[C@H]1C5 [MORPHINE],27.3 mg/kg

# Tested on: not listed separately
# Assay: Oral bioavailability in rat at 30 mg/kg
# Format: ADME, organism-based
# Details: in vivo
row,Compound,bioavailability
1,CSC(=S)N1CC2(CCCCC2)CS/C1=N\c1cccc2c1CCCC2,7%
2,CSC(=S)N1CC2(CCCCC2)CS/C1=N\c1ccc(OC(F)(F)F)cc1,20%
3,CSC(=S)N1CC2(CCCCC2)CS/C1=N\c1cccc2ccccc12,36%
4,CSC(=S)N1CC2(CCCCC2)CS/C1=N\c1ccccc1C(C)C,24%

# Tested on: not listed separately
# Assay: AUC in rat at 30 mg/kg, po
# Format: ADME, organism-based
# Set-up: dose 30 mg/kg, route oral
# Details: plasma
row,Compound,AUC
1,CSC(=S)N1CC2(CCCCC2)CS/C1=N\c1cccc2c1CCCC2,1500 ng·h/mL
2,CSC(=S)N1CC2(CCCCC2)CS/C1=N\c1ccc(OC(F)(F)F)cc1,3900 ng·h/mL
3,CSC(=S)N1CC2(CCCCC2)CS/C1=N\c1cccc2ccccc12,6100 ng·h/mL
4,CSC(=S)N1CC2(CCCCC2)CS/C1=N\c1ccccc1C(C)C,3200 ng·h/mL

# Tested on: not listed separately
# Assay: Half life in rat at 2 mg/kg, iv and 30 mg/kg, po
# Format: ADME, organism-based
# Details: in vivo
row,Compound,half-life
1,CSC(=S)N1CC2(CCCCC2)CS/C1=N\c1cccc2c1CCCC2,4.1 h
2,CSC(=S)N1CC2(CCCCC2)CS/C1=N\c1ccc(OC(F)(F)F)cc1,2.4 h
3,CSC(=S)N1CC2(CCCCC2)CS/C1=N\c1cccc2ccccc12,1.5 h
4,CSC(=S)N1CC2(CCCCC2)CS/C1=N\c1ccccc1C(C)C,2.5 h

# Tested on: not listed separately
# Assay: Total clearance in rat at 2 mg/kg, iv and 30 mg/kg, po
# Format: ADME, organism-based
# Details: in vivo
row,Compound,clearance
1,CSC(=S)N1CC2(CCCCC2)CS/C1=N\c1cccc2c1CCCC2,23.3 mL/min/kg
2,CSC(=S)N1CC2(CCCCC2)CS/C1=N\c1ccc(OC(F)(F)F)cc1,25.9 mL/min/kg
3,CSC(=S)N1CC2(CCCCC2)CS/C1=N\c1cccc2ccccc12,30.1 mL/min/kg
4,CSC(=S)N1CC2(CCCCC2)CS/C1=N\c1ccccc1C(C)C,38.2 mL/min/kg

# Tested on: not listed separately
# Assay: Oral bioavailability in rat at 1 mg/kg
# Format: ADME, organism-based
# Details: in vivo
row,Compound,bioavailability
1,COc1ccccc1/N=C1\SCC2(CCCCC2)CN1C(=S)SC,0.4%
2,COc1cccc(/N=C2\SCC3(CCCCC3)CN2C(=S)SC)c1,13%
3,CSC(=S)N1CC2(CCCCC2)CS/C1=N\c1cccc2c1CCCC2,44%
4,CSC(=S)N1CC2(CCCCC2)CS/C1=N\c1ccc(OC(F)(F)F)cc1,24%
5,CSC(=S)N1CC2(CCCCC2)CS/C1=N\c1cccc2ccccc12,53%
6,CSC(=S)N1CC(C)(C)CS/C1=N\c1ccccc1C(C)C,10%
7,CSC(=S)N1CC2(CC2)CS/C1=N\c1ccccc1C(C)C,14%
8,CSC(=S)N1CC2(CCCC2)CS/C1=N\c1ccccc1C(C)C,8.9%
9,CCC1(CC)CS/C(=N\c2ccccc2C(C)C)N(C(=S)SC)C1,19%
10,CSC(=S)N1CC2(CCCCC2)CS/C1=N\c1cccc2ncccc12,42%
11,CSC(=S)N1CC2(CCCCC2)CS/C1=N\c1ccccc1C(C)C,32%

# Tested on: Mus musculus
# Assay: Analgesic activity against formalin-induced inflammatory pain in po dosed mouse
# Format: functional
# Details: not given
row,Compound,ED50
1,CSC(=S)N1CC2(CCCCC2)CS/C1=N\c1cccc2c1CCCC2,4 mg/kg
2,CSC(=S)N1CC2(CCCCC2)CS/C1=N\c1ccc(OC(F)(F)F)cc1,> 100 mg/kg
3,CSC(=S)N1CC2(CCCCC2)CS/C1=N\c1cccc2ccccc12,1 mg/kg
4,CSC(=S)N1CC2(CCCCC2)CS/C1=N\c1ccccc1C(C)C,17.5 mg/kg
5,CN1CC[C@]23c4c5ccc(O)c4O[C@H]2[C@@H](O)C=C[C@H]3[C@H]1C5 [MORPHINE],9.8 mg/kg

# Molecular target: Cannabinoid receptor 1 (Mus musculus, UniProt P47746)
# Sequence (P47746 whole entry): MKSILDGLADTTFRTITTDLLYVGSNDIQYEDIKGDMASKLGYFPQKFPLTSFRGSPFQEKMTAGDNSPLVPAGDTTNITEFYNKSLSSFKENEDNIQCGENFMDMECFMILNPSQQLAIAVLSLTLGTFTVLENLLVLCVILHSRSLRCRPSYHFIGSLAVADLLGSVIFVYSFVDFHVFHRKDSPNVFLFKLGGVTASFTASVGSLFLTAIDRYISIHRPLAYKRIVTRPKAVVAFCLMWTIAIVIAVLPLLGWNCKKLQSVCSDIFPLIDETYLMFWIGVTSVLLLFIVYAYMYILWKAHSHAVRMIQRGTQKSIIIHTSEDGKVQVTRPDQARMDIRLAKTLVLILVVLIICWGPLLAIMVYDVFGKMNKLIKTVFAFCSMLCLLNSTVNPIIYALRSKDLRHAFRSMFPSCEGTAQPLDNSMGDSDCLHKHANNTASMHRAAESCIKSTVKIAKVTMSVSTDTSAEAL
# Assay: Binding affinity to mouse CB1 receptor
# Details: not given
row,Compound,Ki
1,CSC(=S)N1CC2(CCCCC2)CS/C1=N\c1cccc2c1CCCC2,6 nM
2,CSC(=S)N1CC2(CCCCC2)CS/C1=N\c1ccc(OC(F)(F)F)cc1,1210 nM
3,CSC(=S)N1CC2(CCCCC2)CS/C1=N\c1cccc2ccccc12,6.8 nM
4,CSC(=S)N1CC2(CCCCC2)CS/C1=N\c1ccccc1C(C)C,80 nM

# Molecular target: Cannabinoid receptor 2 (Homo sapiens, UniProt P34972)
# Sequence (P34972 whole entry): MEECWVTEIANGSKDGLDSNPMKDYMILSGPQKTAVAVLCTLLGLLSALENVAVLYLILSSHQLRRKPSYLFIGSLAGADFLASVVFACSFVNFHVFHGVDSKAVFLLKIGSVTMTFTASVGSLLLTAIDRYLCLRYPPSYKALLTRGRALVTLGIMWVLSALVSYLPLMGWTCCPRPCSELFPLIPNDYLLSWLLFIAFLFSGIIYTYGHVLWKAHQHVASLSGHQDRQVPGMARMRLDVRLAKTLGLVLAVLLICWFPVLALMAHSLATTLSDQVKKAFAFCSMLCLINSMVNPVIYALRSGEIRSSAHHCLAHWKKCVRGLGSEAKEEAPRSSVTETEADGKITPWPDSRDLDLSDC
# Assay: Binding affinity to human CB2 receptor
# Details: not given
row,Compound,Ki
1,CSC(=S)N1CC2(CCCCC2)CS/C1=N\c1cccc(C(C)C)c1,2.5 nM
2,COc1ccccc1/N=C1\SCC2(CCCCC2)CN1C(=S)SC,1.1 nM
3,COc1cccc(/N=C2\SCC3(CCCCC3)CN2C(=S)SC)c1,1 nM
4,CSC(=S)N1CC2(CCCCC2)CS/C1=N\c1cccc2c1CCCC2,0.2 nM
5,CSC(=S)N1CC2(CCCCC2)CS/C1=N\c1ccc(OC(F)(F)F)cc1,6 nM
6,CSC(=S)N1CC2(CCCCC2)CS/C1=N\c1cccc2ccccc12,6 nM
7,CSC(=S)N1CC2(CCCCC2)CS/C1=N\c1cccc2nsnc12,1.3 nM
8,CSC(=S)N1CC2(CC2)CS/C1=N\c1ccccc1C(C)C,65 nM
9,CSC(=S)N1CC2(CCCC2)CS/C1=N\c1ccccc1C(C)C,1 nM
10,CCC1(CC)CS/C(=N\c2ccccc2C(C)C)N(C(=S)SC)C1,9 nM
11,CSC(=S)N1CC2(CCCCC2)CS/C1=N\c1cccc2ncccc12,11 nM
12,CSC(=S)N1CC2(CCCCC2)CS/C1=N\c1ccccc1C(C)C,0.8 nM

# Tested on: Mus musculus
# Assay: Analgesic activity against formalin-induced acute pain in iv dosed mouse
# Format: functional
# Details: not given
row,Compound,ED50
1,CSC(=S)N1CC2(CCCCC2)CS/C1=N\c1cccc2c1CCCC2,0.3 mg/kg
2,CSC(=S)N1CC2(CCCCC2)CS/C1=N\c1ccc(OC(F)(F)F)cc1,> 20 mg/kg
3,CSC(=S)N1CC2(CCCCC2)CS/C1=N\c1cccc2ccccc12,0.4 mg/kg
4,CSC(=S)N1CC2(CCCCC2)CS/C1=N\c1ccccc1C(C)C,1.2 mg/kg
5,CN1CC[C@]23c4c5ccc(O)c4O[C@H]2[C@@H](O)C=C[C@H]3[C@H]1C5 [MORPHINE],1.1 mg/kg

# Molecular target: Cannabinoid receptor 2 (Mus musculus, UniProt P47936)
# Sequence (P47936 whole entry): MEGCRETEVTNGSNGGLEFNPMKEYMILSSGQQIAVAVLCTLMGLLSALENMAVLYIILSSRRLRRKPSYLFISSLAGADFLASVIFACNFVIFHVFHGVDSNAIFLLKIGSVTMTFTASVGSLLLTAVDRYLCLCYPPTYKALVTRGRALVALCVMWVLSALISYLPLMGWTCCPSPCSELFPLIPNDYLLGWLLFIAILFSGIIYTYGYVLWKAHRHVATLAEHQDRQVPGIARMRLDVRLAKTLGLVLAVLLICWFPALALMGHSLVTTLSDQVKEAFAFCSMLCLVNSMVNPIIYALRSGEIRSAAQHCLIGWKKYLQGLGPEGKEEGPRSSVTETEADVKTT
# Assay: Binding affinity to mouse CB2 receptor
# Details: not given
row,Compound,Ki
1,CSC(=S)N1CC2(CCCCC2)CS/C1=N\c1cccc2c1CCCC2,0.7 nM
2,CSC(=S)N1CC2(CCCCC2)CS/C1=N\c1ccc(OC(F)(F)F)cc1,7 nM
3,CSC(=S)N1CC2(CCCCC2)CS/C1=N\c1cccc2ccccc12,4 nM
4,CSC(=S)N1CC2(CCCCC2)CS/C1=N\c1ccccc1C(C)C,1.2 nM

# Tested on: Mus musculus
# Assay: Analgesic activity against formalin-induced inflammatory pain in iv dosed mouse
# Format: functional
# Details: not given
row,Compound,ED50
1,CSC(=S)N1CC2(CCCCC2)CS/C1=N\c1cccc2c1CCCC2,0.2 mg/kg
2,CSC(=S)N1CC2(CCCCC2)CS/C1=N\c1ccc(OC(F)(F)F)cc1,> 20 mg/kg
3,CSC(=S)N1CC2(CCCCC2)CS/C1=N\c1cccc2ccccc12,0.4 mg/kg
4,CSC(=S)N1CC2(CCCCC2)CS/C1=N\c1ccccc1C(C)C,1.1 mg/kg
5,CN1CC[C@]23c4c5ccc(O)c4O[C@H]2[C@@H](O)C=C[C@H]3[C@H]1C5 [MORPHINE],1.1 mg/kg

# Molecular target: Cannabinoid receptor 1 (Homo sapiens, UniProt P21554)
# Sequence (P21554 whole entry): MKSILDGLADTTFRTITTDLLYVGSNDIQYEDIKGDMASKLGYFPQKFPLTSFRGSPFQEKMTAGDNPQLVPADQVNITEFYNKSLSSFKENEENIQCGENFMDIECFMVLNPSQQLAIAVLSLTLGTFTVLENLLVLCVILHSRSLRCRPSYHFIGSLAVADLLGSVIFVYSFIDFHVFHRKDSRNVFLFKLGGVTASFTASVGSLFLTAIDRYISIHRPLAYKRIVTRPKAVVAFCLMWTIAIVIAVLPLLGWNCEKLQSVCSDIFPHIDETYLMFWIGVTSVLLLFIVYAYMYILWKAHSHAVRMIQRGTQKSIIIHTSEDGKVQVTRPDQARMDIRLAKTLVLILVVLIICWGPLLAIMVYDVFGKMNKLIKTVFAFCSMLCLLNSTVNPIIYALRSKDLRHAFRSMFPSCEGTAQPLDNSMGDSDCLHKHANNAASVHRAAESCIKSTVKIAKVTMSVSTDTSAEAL
# Assay: Binding affinity to human CB1 receptor
# Details: not given
row,Compound,Ki
1,CSC(=S)N1CC2(CCCCC2)CS/C1=N\c1cccc(C(C)C)c1,100 nM
2,COc1ccccc1/N=C1\SCC2(CCCCC2)CN1C(=S)SC,13 nM
3,COc1cccc(/N=C2\SCC3(CCCCC3)CN2C(=S)SC)c1,108 nM
4,CSC(=S)N1CC2(CCCCC2)CS/C1=N\c1cccc2c1CCCC2,15 nM
5,CSC(=S)N1CC2(CCCCC2)CS/C1=N\c1ccc(OC(F)(F)F)cc1,1500 nM
6,CSC(=S)N1CC2(CCCCC2)CS/C1=N\c1cccc2ccccc12,30 nM
7,CSC(=S)N1CC2(CCCCC2)CS/C1=N\c1cccc2nsnc12,44 nM
8,CSC(=S)N1CC(C)(C)CS/C1=N\c1ccccc1C(C)C,> 5000 nM
9,CSC(=S)N1CC2(CCCC2)CS/C1=N\c1ccccc1C(C)C,541 nM
10,CCC1(CC)CS/C(=N\c2ccccc2C(C)C)N(C(=S)SC)C1,> 5000 nM
11,CSC(=S)N1CC2(CCCCC2)CS/C1=N\c1cccc2ncccc12,763 nM
12,CSC(=S)N1CC2(CCCCC2)CS/C1=N\c1ccccc1C(C)C,122 nM
